For series [1] the following is noted: extent of activity of DPH; cited from earlier work.
For series [2], the system named is Guinea pig atria. Description: Refractory period in isolated atria, electrical stimulation (Dawes). To be noted: Cavia porcellus, read-out: EC50 (amount necessary for increasing the minimum interval by 50 percent over control values). On the procedure:
The effect of the compounds of this invention on the refractory period in the atrium was studied and compared to that hydantoin according to the procedure described by Dawes (Brit. J. Pharmacol., 1: 90, [1946]).
Guinea pig atria, suspended in an isolated organ chamber, were stimulated electrically at increasing frequencies while the resulting mechanical contractions were recorded. The minimum interval between two consecutive stimuli necessary for eliciting a mechanical response was determined before and after incubation with varying concentrations of the test compounds. The minimum interval thus determined is an indirect measure of the refractory period in the tissue, and a prolongation of this interval indicates an increased refractory period. From the increase in minimum interval observed with each concentration, the amount necessary for increasing the interval by 50 percent over control values (EC50) was determined for each compound.

The nature of series [3]: in vivo. Type of series: in vivo. To be noted: intraperitoneal; for MLD (Minimum Lethal Dose): deaths before exposure to chloroform; for selectivity ratio: mouse, in vivo, ip, calculated with Minimum Lethal Dose data, read-out: MLD/ED50 (Therapeutic Index). As for the experimental part: (§1) The tests compounds were administered to groups consisting of 5 mice in varying intraperitoneal doses. Ten minutes after administration of a given dose of a compound, a mouse was transferred to a covered 300 ml glass beaker which contained a wad of cotton saturated with about 20 ml of chloroform. The animal was observed closely and removed from the beaker immediately after respiratory arrest. The heart was quickly exposed by making an incision through the abdomen, diaphragm, thorax and pericardium for visual inspection of ventricular rate and rhythm. Ventricular contractions were counted for 30 seconds. According to the procedure reported by Lawson (J. Pharmacol. Exp. Therap., 160:22 [1968]), animals with a ventricular rate not exceeding 100 contractions during the 30 second observation period were considered protected. Results obtained with each dose were used to calculate the mean effective doses (ED50) after the method of Litchfield and Wilcoxon (J. Pharmacol. Exp. Therap. 96: 99-113 [ 1949]).

Series [4] concerns ventricular rate and rhythm. Description: Antiarrhythmic activity: protection against chloroform-induced ventricular arrhythmia in mice (Lawson). It counts as in vivo. To be noted: Mus musculus, ip, 10 min; intraperitoneal, 10 min before chloroform; protected = ventricular rate not exceeding 100 contractions in 30 s; groups of 5 mice; parentheses = 95% confidence limits; read-out: ED50 (95% CL). As for the experimental part:
The antiarrhythmic activity of the compounds of this invention, specifically those enumerated in the Summary and presented as the above examples, was compared to that of diphenylhydantoin (I), 3-(3-diethylaminopropyl)- 5,5-diphenylhydantoin (II), 3-[3-(1-piperidyl)-propyl]- 5,5-diphenylhydantoin (III), and 3-(3-morpholinopropyl)-5,5-diphenylhydantoin (IV).
as §1
In Table A, the compounds of this invention are listed by the arabic numeral assigned in the Summary and the above corresponding Example Number; the Roman numerals refer to the compounds so designated above in this Example and in the Description of the Prior Art.

Series [5] deals with heart. The settings on record: prior art; cited from earlier work.
The conditions of series [6]: prior art, cited from earlier work.
[7] abbreviates: guinea pig atria, electrical stimulation, indirect measure of refractory period.

Values after ≈ are worked out from the molar mass of the structure shown. Structures can show the parent of a compound that is named as a salt. Where two headings read alike, the source gives them in different places.

Turning to `Nc1ccc(C2(c3ccccc3)NC(=O)NC2=O)cc1` (centres unmarked) [5-(4-aminophenyl)-5-phenylhydantoin], the “activity relative to DPH” value in series [1] was 50%.
On to `O=C(O)/C=C\C(=O)O.O=C1NC(c2ccccc2)(c2ccccc2)C(=O)N1CCCN1CCN(c2ccccc2)CC1` [Compound 1, 3-[3-(4-phenyl-1-piperazinyl)propyl]-5,5-diphenylhydantoin maleate], for which the EC50 in series [2] (setting [7]) is 4.4 µg/mL. Further, in series [3], the “MLD (Minimum Lethal Dose)” value is given as over 160 mg/kg and the selectivity ratio was over 9.77. In series [4], the 50% effective dose (ED50) (usually the midpoint of the dose-response relation) was determined as 16.4 mg/kg.
On to `O=C1NC(c2ccccc2)(c2ccccc2)C(=O)N1CCCN1CCC(c2ccccc2)CC1` [Compound 2, 3-[3-(4-phenyl-1-piperidyl)propyl]-5,5-diphenylhydantoin], for which, in series [2] (setting [7]), the EC50 was determined as 1.1 µg/mL (≈ 2.43 µM). For the same molecule, in series [3], the “MLD (Minimum Lethal Dose)” value stood at 320 mg/kg and the selectivity ratio is 23.7. Further, in series [4], the 50% effective dose (ED50) came to 13.5 mg/kg.
On to `O=C1NC(c2ccccc2)(c2ccccc2)C(=O)N1CCN1CC=C(c2ccccc2)CC1` [Compound 4, 5,5-diphenyl-3-[2-(4-phenyl-1,2,3,6-tetrahydropyridyl)ethyl]hydantoin hydrochloride], for which, in series [2], the EC50 is 5.7 µg/mL. In addition, in series [3], the “MLD (Minimum Lethal Dose)” value was over 178 mg/kg and the selectivity ratio is over 1.85. Moreover, in series [4], the ED50 is 96 mg/kg.
Consider `Cl.O=C1NC(c2ccccc2)(c2ccccc2)C(=O)N1CCCN1CCC(O)(c2ccccc2)CC1` [Compound 5, 5,5-diphenyl-3-[3-(4-hydroxy-4-phenyl-1-piperidyl)propyl]hydantoin hydrochloride], for which, in series [2], the EC50 was over 10 µg/mL. Further, in series [3], the “MLD (Minimum Lethal Dose)” value is listed as 31 mg/kg and the selectivity ratio was 5.35. In addition, the median effective dose (ED50) in series [4] was 5.8 mg/kg.
With `CC(C)(C)NCC(O)CN1C(=O)NC(c2ccccc2)(c2ccccc2)C1=O.Cl` (centres unmarked) [Compound 6, 3-(3-t-butylamino-2-hydroxypropyl)-5,5-diphenylhydantoin hydrochloride], the EC50 in series [2] (setting [7]) was found to be 1.5 µg/mL. Also, in series [3], the “MLD (Minimum Lethal Dose)” value turned out to be 100 mg/kg and the selectivity ratio was 10.6. The median effective dose (ED50) in series [4] was found to be 9.4 mg/kg.
For `Cl.O=C1NC(c2ccc(Cl)cc2)(c2ccc(Cl)cc2)C(=O)N1CCCN1CCC(c2ccccc2)CC1` [Compound 8, 3-[3-(4-phenyl-1-piperidyl)propyl]-5,5-di(4-chlorophenyl)hydantoin hydrochloride] the same measures were over 10 µg/mL, over 178 mg/kg, over 2.28 and 75 mg/kg.
For `COc1ccc(C2(c3ccc(OC)cc3)NC(=O)N(CCCN3CCC(c4ccccc4)CC3)C2=O)cc1.Cl` [Compound 10, 3-[3-(4-phenyl-1-piperidyl)propyl]-5,5-di(4-methoxyphenyl)hydantoin hydrochloride] the same measures were 6.4 µg/mL, over 178 mg/kg, over 5.24 and 34 mg/kg.
The matching figures for `Cl.O=C1NC(c2ccccc2)(c2ccc(Br)cc2)C(=O)N1CCCN1CCC(c2ccccc2)CC1` (centres unmarked) [Compound 11, 3-[3-(4-phenyl-1-piperidyl)propyl]-5-(4-bromophenyl)-5-phenylhydantoin hydrochloride]: 4 µg/mL, over 100 mg/kg, over 2.98 and 33.5 mg/kg.
Turning to `Cc1ccc(C2(c3ccccc3)NC(=O)N(CCCN3CCC(c4ccccc4)CC3)C2=O)cc1.O=C(O)/C=C\C(=O)O` (centres unmarked) [Compound 12, 3-[3-(4-phenyl-1-piperidyl)propyl]-5-phenyl-5-(4-tolyl)hydantoin maleate], the EC50 in series [2] (setting [7]) came out at 4.8 µg/mL. Besides, in series [3], the “MLD (Minimum Lethal Dose)” value is over 100 mg/kg and the selectivity ratio was over 5.13. Besides, the median effective dose (ED50) in series [4] turned out to be 19.5 mg/kg.
Consider `Cc1ccc(C2(c3ccc(C)cc3)NC(=O)N(CCCN3CCC(c4ccccc4)CC3)C2=O)cc1` [Compound 13, 3-[3-(4-phenyl-1-piperidyl)propyl]-5,5-di(4-tolyl)hydantoin], for which the EC50 in series [2] (setting [7]) is over 10 µg/mL. In series [3], the “MLD (Minimum Lethal Dose)” value is listed as over 100 mg/kg and the selectivity ratio was over 22.2. Besides, the median effective dose (ED50) in series [4] was 4.5 mg/kg.
As to `O=C1NC(c2ccccc2)(c2ccc([N+](=O)[O-])cc2)C(=O)N1CCCN1CCC(c2ccccc2)CC1` (centres unmarked) [Compound 14, 3-[3-(4-phenyl-1-piperidyl)propyl]-5-(4-nitrophenyl)-5-phenylhydantoin], in series [2] (setting [7]), the EC50 was 8.3 µg/mL (≈ 16.6 µM). In series [3], the “MLD (Minimum Lethal Dose)” value was over 100 mg/kg and the selectivity ratio was over 9.52. For the same molecule, the median effective dose (ED50) in series [4] was 10.5 mg/kg.
The matching figures for `Nc1ccc(C2(c3ccccc3)NC(=O)N(CCCN3CCC(c4ccccc4)CC3)C2=O)cc1` (centres unmarked) [Compound 15, 3-[3-(4-phenyl-1-piperidyl)propyl]-5-(4-aminophenyl)-5-phenylhydantoin]: 3.7 µg/mL (≈ 7.9 µM), over 100 mg/kg, over 29.4 and 3.4 mg/kg.
Consider `Cc1ccc(C2(c3ccc(C)cc3)NC(=O)N(CCCN3CCC(O)(c4ccccc4)CC3)C2=O)cc1` [Compound 18, 3-[3-(4-hydroxy-4-phenyl-1-piperidyl)propyl]-5,5-di-(4-tolyl)hydantoin], for which, in series [2], the EC50 was 1.9 µg/mL (≈ 3.82 µM). In series [3], the “MLD (Minimum Lethal Dose)” value is reported as over 100 mg/kg and the selectivity ratio was over 4.17. The ED50 in series [4] came to 24 mg/kg.
Take `O=C1NC(=O)C(c2ccccc2)(c2ccccc2)N1` [I, 5,5-diphenyl-2,4-imidazolidinedione]: in series [5], the “action on ventricular arrhythmias induced by digitalis” value is on record as “antagonize ventricular arrhythmias induced by digitalis”, the atrio-ventricular nodal conduction result is “enhances atrio-ventricular nodal conduction”, the effective refractory period result is “reduces the effective refractory period” and the ventricular automaticity entry was “depresses ventricular automaticity”. For the same molecule, the EC50 in series [2] (setting [7]) was found to be 20 µg/mL (≈ 79.3 µM). The “MLD (Minimum Lethal Dose)” value in series [3] turned out to be 1000 mg/kg. Moreover, in series [6] (large doses), the “side effects of large doses” value is listed as “atrio-ventricular blockage, bradycardia, or even cardiac arrest”. Besides, the untoward side effects entry in series [6] is “dizziness, nausea, emesis, nystigmus, and ataxia”. For the same molecule, in series [4], the 50% effective dose (ED50) was 394 mg/kg.
On to `CCN(CC)CCCN1C(=O)NC(c2ccccc2)(c2ccccc2)C1=O` [II, 3-(3-diethylaminopropyl)-5,5-diphenylhydantoin, reference compound], for which, in series [3], the “MLD (Minimum Lethal Dose)” value was determined as 56 mg/kg and the selectivity ratio is 4. The ED50 in series [4] worked out at 14 mg/kg.
The matching figures for `O=C1NC(c2ccccc2)(c2ccccc2)C(=O)N1CCCN1CCCCC1` [III, 3-[3(1-piperidyl)propyl]-5,5-diphenylhydantoin, reference compound]: 31 mg/kg, 1.63 and 19 mg/kg.
Regarding `O=C1NC(c2ccccc2)(c2ccccc2)C(=O)N1CCCN1CCOCC1` [IV, 3-(3-morpholinopropyl)-5,5-diphenylhydantoin, reference compound], in series [3], the “MLD (Minimum Lethal Dose)” value was found to be 178 mg/kg and the selectivity ratio is 2.34. In addition, the 50% effective dose (ED50) in series [4] is 76 mg/kg.
